According to patent publication US20250367173A1, “ECTONUCLEOTIDE PYROPHOSPHATASE-PHOSPHODIESTERASE-1 INHIBITORS AND PHARMACEUTICAL COMPOSITIONS COMPRISING THE SAME” (LigaChem Biosciences Inc., priority 2022, published 2025):

Assays:
ENPP-1 [1] = molecular target: T1, ENPP-1 (Homo sapiens, UniProt P22413); assay: ENPP-1 enzyme assay with cGAMP substrate; format: biochemical; details: 200 pM ENPP-1, 10 μM substrate 2′3′-cGAMP, pH 7.4, 37° C., 30 minutes, Transcreener AMP2/GMP2 kit; average IC50
T1 construct: purchased Biovendor RD172124100
T1 sequence (P22413 1-925): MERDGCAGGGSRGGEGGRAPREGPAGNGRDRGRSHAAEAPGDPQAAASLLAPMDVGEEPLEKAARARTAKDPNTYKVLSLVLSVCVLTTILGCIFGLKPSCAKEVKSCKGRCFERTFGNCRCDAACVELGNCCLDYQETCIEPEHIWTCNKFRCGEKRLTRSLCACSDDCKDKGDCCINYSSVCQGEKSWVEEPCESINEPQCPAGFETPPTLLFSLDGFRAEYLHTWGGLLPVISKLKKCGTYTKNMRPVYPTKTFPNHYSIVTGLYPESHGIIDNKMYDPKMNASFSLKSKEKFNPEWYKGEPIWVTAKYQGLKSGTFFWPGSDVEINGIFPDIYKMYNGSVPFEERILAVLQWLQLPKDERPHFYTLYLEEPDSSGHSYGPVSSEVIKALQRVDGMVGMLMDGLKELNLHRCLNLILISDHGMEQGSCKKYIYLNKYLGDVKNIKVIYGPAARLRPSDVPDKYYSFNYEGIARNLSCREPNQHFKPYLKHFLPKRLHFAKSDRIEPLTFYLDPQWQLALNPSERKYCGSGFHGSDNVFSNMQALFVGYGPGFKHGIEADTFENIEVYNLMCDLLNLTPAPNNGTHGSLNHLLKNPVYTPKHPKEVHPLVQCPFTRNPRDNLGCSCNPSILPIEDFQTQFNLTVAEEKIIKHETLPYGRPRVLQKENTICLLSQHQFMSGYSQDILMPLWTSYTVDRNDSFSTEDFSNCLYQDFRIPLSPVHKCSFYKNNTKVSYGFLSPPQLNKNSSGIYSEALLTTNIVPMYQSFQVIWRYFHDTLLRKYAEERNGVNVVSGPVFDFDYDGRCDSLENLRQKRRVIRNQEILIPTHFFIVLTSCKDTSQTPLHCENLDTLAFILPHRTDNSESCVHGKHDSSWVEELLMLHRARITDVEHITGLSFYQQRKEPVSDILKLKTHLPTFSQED
Protocol: 2′3′-cGAMP is a natural substrate specifically hydrolyzed by ENPP-1, and produces 5′-adenosine monophosphate (AMP) and 5′-guanosine monophosphate (GMP). AMP and GMP produced from the reaction are monitored for ENPP-1 enzyme activity through an AMP^2/GMP^2 ENPP-1 Assay kit (Bellbrook Labs, catalog number 3015).
First, the reaction mixture contains 25 mM Tris-HCl (pH 7.4), 5 mM MgCl2, 0.01% Brij-35, and 1% DMSO. Serially diluted ENPP-1 inhibitors (test compound concentrations ranging from 10 μM to 0.5 nM) are reacted with 200 pM ENPP-1 (Biovendor, catalog number RD172124100) and 10 μM substrate 2′3′-cGAMP at 37° C. for 30 minutes. All assays include a DMSO control without ENPP-1 inhibitor that provides maximal AMP and GMP production. After 30 minutes of this reaction, AMP and GMP production is detected as a measure of ENPP-1 enzymatic activity using the Transcreener® AMP^2/GMP^2 ENPP-1 Assay kit. The detection reagent is a reagent containing 16 nM AMP^2/GMP^2 Antibody-Tb, 25 mM Tris-HCl and 60.1 nM AMP/GMP HiLyte647 Tracer, which is added by 5 μl, mixed well, and incubated at 25° C. for 2 hours.
(§1) The […] signal is measured using a SPARK Cyto plate reader (Tecan). Inhibition (%) is calculated using the following formula: (Max 615:665 ratio-615:665 ratio)/Max 615:665 ratio×100%. % residual ENPP-1 enzyme activity versus IC50 values for ENPP-1 inhibitor concentrations were determined by fitting inhibition curves using the 4-parameter method of GraphPad Prism® software [GraphPad version 9.3.1 for Windows, GraphPad Software, La Jolla California USA, www.graphpad.com].

ENPP-1 [2] = molecular target: T1, ENPP-1; assay: ENPP-1 enzyme assay with pNP-TMP substrate; format: biochemical; details: 12.5 ng ENPP-1, 720 μM substrate pNP-TMP, pH 9.0, 37° C., 60 minutes, absorbance 405 nm; average IC50
Protocol: In order to measure the ENPP-1 inhibitory activity of the compounds according to the present disclosure, the following tests were performed.
ENPP-1 hydrolyzes a variety of substrates, including phosphodiester bonds of nucleotides and nucleotide sugars and pyrophosphate bonds of nucleotides and nucleotide sugars. p-Nitrophenyl 5′-thymidine monophosphate (p-Nph-5′-TMP) is an artificial substrate for 5′-adenosine monophosphate (AMP), which is hydrolyzed by the human recombinant ENPP-1 enzyme. In the above reaction, ENPP-1 enzymatic activity is monitored through the formation of yellow p-nitrophenolate, which absorbs at 405 nm.
First, the reaction mixture contains 100 mM Tris-HCl (pH 9.0), 150 mM NaCl, […], and 1% DMSO. Serially diluted ENPP-1 inhibitors (test compound concentrations ranging from 10 μM to 0.5 nM) are reacted with 12.5 ng of ENPP-1 (Biovendor, catalog number RD172124100) and 720 μM substrate pNP-TMP at 37° C. for 60 minutes. All assays include a DMSO control without ENPP-1 inhibitor that gives maximum absorbance.
as §1, with “After 60 minutes of this reaction, the” for “The”, “an Epoch™ Microplate Spectrophotometer (BioTek Instruments Inc.).” for “a SPARK Cyto plate reader (Tecan).”, “Sample OD405 nm/Max OD405 nm×100%.” for “(Max 615:665 ratio-615:665 ratio)/Max 615:665 ratio×100%.”

| SMILES | IC50 (ENPP-1 [1]) | IC50 (ENPP-1 [2]) |
| --- | --- | --- |
| CCOc1ccc2c(c1)c1ncccc1n2Cc1ccc(S(C)(=N)=O)cc1 (stereo not drawn) [Compound 24, (4-((8-ethoxy-5H-pyrido[3,2-b]indol-5-yl)methyl)phenyl)(imino)(methyl)-l6-sulfanone] | < 1000 nM | 1000 to 10000 nM |
| COc1cc(C)c2c(c1)c1ncccc1n2Cc1ccc(S(N)(=O)=O)cc1 [Compound 26, 4-((8-methoxy-6-methyl-5H-pyrido[3,2-b]indol-5-yl)methyl)benzenesulfonamide] | < 1000 nM | < 1000 nM |
| COc1ccc2c(c1)c1c(=O)[nH]ncc1n2Cc1ccc(S(N)(=O)=O)cc1 [Compound 44, 4-((8-methoxy-1-oxo-1,2-dihydro-5H-pyridazino[4,5-b]indol-5-yl)methyl)benzene sulfonamide] | < 1000 nM | < 1000 nM |
| COc1cc2c3ncccc3n(Cc3ccc(S(C)(=N)=O)cc3)c2cc1F (single isomer, unassigned) [Compound 30a, (4-((7-fluoro-8-methoxy-5H-pyrido[3,2-b]indol-5-yl)methyl)phenyl)(imino)(methyl)-l6-sulfanone] | < 1000 nM | < 1000 nM |
| COc1ccc2c(c1)c1ncncc1n2Cc1ccc(S(N)(=O)=O)cc1 [Compound 51, 4-((8-methoxy-5H-pyrimido[5,4-b]indol-5-yl)methyl)benzenesulfonamide] | < 1000 nM | < 1000 nM |
| COc1cc2c3ncccc3n(Cc3ccc(S(N)(=O)=O)cc3)c2cc1F [Compound 29, 4-((7-fluoro-8-methoxy-5H-pyrido[3,2-b]indol-5-yl)methyl)benzenesulfonamide] | < 1000 nM | < 1000 nM |
| COc1cnc2c(c1)c1c(n2Cc2ccc(S(N)(=O)=O)cc2)CNCC1 [Compound 34, 4-((3-methoxy-5,6,7,8-tetrahydro-9H-pyrrolo[2,3-b:5,4-c′]dipyridin-9-yl)methyl)benzene sulfonamide] | > 10000 nM | > 10000 nM |
| COc1ccc2c3c(n(Cc4ccc(S(N)(=O)=O)cc4)c2c1)CCCN3 [Compound 37, 4-((7-methoxy-1,2,3,4-tetrahydro-5H-pyrido[3,2-b]indol-5-yl)methyl)benzenesulfonamide] | > 10000 nM | < 1000 nM |
| COc1cc(Cl)c2c(c1)c1ncccc1n2Cc1ccc(S(N)(=O)=O)cc1 [Compound 27, 4-((6-chloro-8-methoxy-5H-pyrido[3,2-b]indol-5-yl)methyl)benzenesulfonamide] | 1000 to 10000 nM | < 1000 nM |
| COc1ccc2c3c(n(Cc4ccc(S(N)(=O)=O)cc4)c2c1)CCNC3 [Compound 35, 4-((7-methoxy-1,2,3,4-tetrahydro-5H-pyrido[4,3-b]indol-5-yl)methyl)benzenesulfonamide] | 1000 to 10000 nM | < 1000 nM |
| CS(=N)(=O)c1ccc(Cn2c3ccccc3c3ccncc32)cc1 (stereo not drawn) [Compound 1, (4-((9H-pyrido[3,4-b]indol-9-yl)methyl)phenyl)(imino)(methyl)-l6-sulfanone] | 1000 to 10000 nM | < 1000 nM |
| COc1ccc2c3c(=O)[nH]ncc3n(Cc3ccc(S(C)(=N)=O)cc3)c2c1 (stereo not drawn) [Compound 46, 7-methoxy-5-(4-(S-methylsulfonimidoyl)benzyl)-2,5-dihydro-1H-pyridazino[4,5-b]indol-1-one] | < 1000 nM | < 1000 nM |
| COc1ccc2c(c1)c1c(n2Cc2ccc(S(N)(=O)=O)cc2)CCNC1=O [Compound 41, 4-((8-methoxy-1-oxo-1,2,3,4-tetrahydro-5H-pyrido[4,3-b]indol-5-yl)methyl)benzene sulfonamide] | 1000 to 10000 nM | < 1000 nM |
| COc1ccc2c(c1)c1ccncc1n2Cc1ccc(S(N)(=O)=O)cc1 [Compound 2, 4-((6-methoxy-9H-pyrido[3,4-b]indol-9-yl)methyl)benzenesulfonamide] | < 1000 nM | < 1000 nM |
| COc1ccc2c(c1)c1ncccc1n2Cc1ccc(CP(=O)(O)O)cc1 [Compound 14, (4-((8-methoxy-5H-pyrido[3,2-b]indol-5-yl)methyl)benzyl)phosphonic acid] | < 1000 nM | < 1000 nM |
